Reference: patent publication US10543249B2, “Pharmaceutical composition for a sustained release of lanreotide” (IPSEN PHARMA S.A.S., priority 2013, dated 2020)

Test: Solubility of lanreotide acetate
Format: physicochemical
Description: The term “co-solvent” as used in the present application refers to a solvent or a mixture of solvents which allows the incorporation of the active ingredient in the composition to obtain the required dose in a suitable volume and matching the injectability criteria.
A composition according to the present invention comprises a co-solvent which allows obtaining the required injectability criteria of the pharmaceutical compositions. The co-solvent used in the composition according to the present invention is hydrosoluble. Moreover, the solubility, in the hydrosoluble co-solvent, of lanreotide or its salts used according to the present invention is equal or higher than 8% (w/v) at room temperature. For comparison, the solubility of lanreotide acetate is less than 4% in water, aqueous acetic acid (at the concentration of 0.1 or 1 mol/mL), aqueous NaCl (0.9%), or polysorbate (0.01%).

Measured: solubility of lanreotide acetate

CC(C)[C@@H]1NC(=O)[C@H](CCCCN)NC(=O)[C@@H](Cc2c[nH]c3ccccc23)NC(=O)[C@H](Cc2ccc(O)cc2)NC(=O)[C@@H](NC(=O)[C@H](N)Cc2ccc3ccccc3c2)CSSC[C@@H](C(=O)N[C@H](C(N)=O)[C@@H](C)O)NC1=O [lanreotide acetate]
less than 4%: in aqueous NaCl (0.9%) | in aqueous acetic acid (at the concentration of 0.1 or 1 mol/mL) | in polysorbate (0.01%) | in water
